Earlier results in EP0188214A2, “Novel growth hormone-releasing peptides and method of treating mammals therewith” (The Administrators of The Tulane University Educational Fund, priority 1985, dated 1986).
Ends that are not written are not given here.

Test system: rat anterior pituitary
Details: rat anterior pituitary in vitro and in vivo; literature

| Substance | growth hormone(GH)-releasing activity |
| --- | --- |
| hpGRF: growth hormone-releasing factors (GRF) of human pancreatic islet tumor origin (YADAIFTNSYRKVLGQLSARKLLQDIMSRQQGESNQERGARARL; ends and bridges not checked; UniProt P01286 32-75, looked up) | possess growh hormone(GH)-releasing activity |
| hp GRF(1-29)-NH2: synthetic amidated fragment of the natural hp GRF (YADAIFTNSYRKVLGQLSARKLLQDIMSR-NH2; UniProt P01286 32-60, looked up, fragment) | full intrinsic biological activity |
